Test results taken from patent US6162826A, “Genipin derivative having anti hepatitis B virus activity” (priority 1996, dated 2000).
Where two headings read alike, the source gives them in different places.

What was measured:
[1] = Cytotoxicity test (neutral red dye uptake); assay type: cell-based; conditions: human, 2.2.15 cells, A510, 2.2.15 cell, cells treated as in Biological Example 1, read-out: IC50 (cytotoxicity)
Method: Further, the present inventors have performed cytotoxicity test using the neutral red dye uptake method to determine that the anti viral effect of the compound of formula (I) […] its general influence on cell growth. As a result, it was identified that the toxicity of the compound of formula (I) is much less than that of ddC.
Cytotoxicity test was carried out in order to determine whether the anti viral effect of the compound according to the present invention is due to the general influence on cell growth or not. In the present experiment, neutral red dye uptake method was used. This is a standard method widely utilized for examining cell survival, by which the variety of relations between viruses such as HSV or HIV and host organism can be understood.
Cytotoxicity test was performed on a 96-well tissue culture plate. Cells were cultured and treated with test compounds in the same manner as Biological Example 1, and the experiments at 4-kind concentrations were repeated threetimes, respectively. Since the relative toxicity can be determined from the uptake level of neutral red dye, quantitative analysis was carried out using the absorbance of internalized dye at 510 nm (A510).
Inhibitory effect of the compound of formula (I) on HBV replication in 2.2.15 cell culture, cytotoxicity, and SI (Selectivity Index, IC50 /ED50)

[2] = test system: HBV replication; assay: Inhibitory effect on HBV replication in 2.2.15 cell culture; assay type: cell-based, hepatitis B virus; conditions: for EC50: Hepatitis B virus, 216 h, read-out: ED50 (inhibitory effect on HBV replication); for SI (Selectivity Index, IC50/ED50): cytotoxicity IC50 / HBV ED50, 2.2.15 cell culture
Description: Inhibitory effect on HBV replication was examined by the use of 2.2.15. cell. 2.2.15. cell line (see, Sells et al., Journal of Virology, 62, 2836-2844, 1988) is a hepatoma cell infected by hepatitis B virus and is a representative standard cell which accurately standardizes all the essential viral characteristics induced by a chronic HBV infection. That is, 2.2.15. cell has some merits such that DNA pattern is stable, replicated virus exists in high level, virus-specific RNA replicate and protein are present in an appropriate size and pattern, the penetrated HBV virion is excreted in high titer, etc. Therefore, it has been recognized as a very suitable cell line which can be used when the anti viral activity of any compound on HBV is evaluated (see, Korba and Milman, Antiviral Research, 15, p217-228, 1991).
First, the present inventors cultured 2.2.15. cell and treated the cell with the novel compound according to the present invention. Then, extraction of DNA and RNA, gel electrophoresis, and hybridization analysis of HBV DNA were carried out to identify the inhibitory activity of the compound of the present invention on HBV replication. Herein, untreated cell was used as a control and ddC (dideoxy cytidine) widely known as a therapeutic agent for hepatitis was used as a comparative compound. As a result, it could be seen that the genipin derivative according to the present invention has an excellent inhibitory effect on replication like the known ddC.
Test for identifying the anti HBV effect of the compound of the present invention was carried out according to a known assay method (see, Korba and Milman, Antiviral Res., 15, 217, 1991). The assay procedure is briefly described in the following.
2.2.15. cell was cultured and preserved in RPM 11640 culture medium containing 5% fetal bovine serum(FBS), 2 mM glutamine and 50 μg/ml gentamicin sulfate. Resistance to G418 of the cell culture and degree of Mycoplasma contamination were examined according to conventional methods.
Cells (1×10^4 /cm^2) were inoculated into a multi-well tissue culture plate, confluently cultured for 7 days, and then kept for 2 or 3 days in confluent condition to stabilize the HBV DNA level. Then, culture medium was replaced 24 hours before cells were exposed to test compound. During the treatment of 9 days, culture medium was replaced and then test compound was added to the fresh culture medium at intervals of 24 hours. Culture medium was collected immediately before the first introduction of test compound, and after 3, 6, 9 days, respectively, and stored at -70° C. before HBV DNA analysis. Then, cytolysis was carried out to analyze the intracellular HBV DNA.
To analyze the extracellular HBV DNA, 0.2 ml of culture medium was incubated in 1M NaOH/10×SSC (1×SSC=0.15M NaCl/0.015M sodium citrate, pH 7.2) for 20 minutes at 25° C. and then immediately applied to a nitrocellulose membrane presoaked in 20×SSC using a slot blot apparatus. The sample was washed twice with 0.5 ml of 1M Tris/2M NaCl (pH 7.2) and once with 0.5 ml of 20×SSC to neutralize, and then it was washed again with 2×SSC and heated at 80° C. for one hour under vacuum. Generally, the cells which have been cultured and preserved in a dish having a diameter of 10 cm are dissolved in 6 ml of lysis buffer, and the […] is prepared according to the method of Korba et al., 1991.
10 μg/lane of cellular DNA sample was digested with restriction enzyme Hind III. Then, the digested sample was applied to 1% agarose gel electrophoresis and transferred to a nitrocellulose membrane.
3.2 kb HBV DNA fragment obtained by EcoR 1-digestion and purification was labeled with [^32 P]dCTP using nick translation method. This labeled fragment was used as a hybridization probe. Conditions for hybridization and post-washing were controlled by referring to the method of Korba et al., 1991 and HBV nucleic acid content among test sample was determined by Ambis beta scanner. […]

[3] = test system: HBV replication; conditions: therapeutic agent for hepatitis B; cited from earlier work
[4] = cited from earlier work
[5] = 2.2.15 cell culture, treatment of 9 days

Row | Structure (SMILES) | CC50 [1] | EC50 [2, 5] | SI (Selectivity Index, IC50/ED50) [2] | inhibition of HBV replication (in words) [3] | in vivo activities (in words) [4] | EC50 [2]
1 | CO[C@@H]1OC=C(C=O)[C@H]2CC=C(C=O)[C@@H]12 [Compound 1, (1R,4aS,7aS)-4,7-diformyl-1-metboxy-1,4a,5,7a-tetrahydrocyclopenta-[c]pyran] | 120 µM | > 500 µM |  |  |  | 
2 | COc1ccc(COCC2=CO[C@@H](OC)[C@@H]3C(C=NO)=CC[C@H]23)cc1 [Compound 2, (1R,4aS,7aS)-7-hydroxyiminomethyl-1-methoxy-4-(p-methoxybenzyloxymethyl)-1,4a,5,7a-tetrahydrocyclopenta[c]pyran] | 90 µM | 30 µM | 3.0 |  |  | 
3 | COC(=O)C1=CO[C@@H](OC(=O)c2ccncc2)[C@@H]2C(COC(=O)c3ccncc3)=CC[C@H]12 [Compound 11, Methyl (1S,4aS,7aS)-1-isonicotinoyloxy-7-isonicotinoyloxymethyl-1,4a,5,7a-tetrahydrocyclopenta[c]pyran4-carboxylate] | > 200 µM | 30 µM | > 6.7 |  |  | 
4 | COC(=O)C1=CO[C@@H](OCc2ccccc2)[C@@H]2C(C=O)=CC[C@H]12 [Compound 13, Methyl (1R,4aS,7aS)-1-benzyloxy-7-formyl-1,4a,5,7a-tetrahydrocyclopenta[c]pyran-4-carboxylate] | 50 µM | 20 µM | 2.5 |  |  | 
5 | COC(=O)C1=CO[C@@H](OCc2ccccc2)[C@@H]2C(C=NO)=CC[C@H]12 [Compound 14, Methyl (1R,4aS,7aS)-1-benzyloxy-7-hydroxyiminomethyl-1,4a,5,7a-tetrahydrocyclopenta[c]pyran-4-carboxylate] | 130 µM | 15 µM | 8.7 |  |  | 
6 | OCC1=C[C@@H](O)[C@@H]2C=CO[C@@H](O[C@@H]3O[C@H](CO)[C@@H](O)[C@H](O)[C@H]3O)[C@H]12 [aucubin] |  |  |  | inhibit the HBV replication | liver-protection, inhibition of biosynthesis of RNA and protein, detoxification as well as antiviral activity | 
7 | Nc1ccn([C@H]2CC[C@@H](CO)O2)c(=O)n1 [ddC, dideoxy cytidine, reference compound] | > 30 µM |  | > 2.0 |  |  | 15 µM
8 | COC(=O)C1=CO[C@@H](O)[C@@H]2C(CO)=CC[C@H]12 [genipin] |  |  |  | inhibit the HBV replication | liver-protection, inhibition of biosynthesis of RNA and protein, detoxification as well as antiviral activity | 
